Laboratory results published in patent publication US20080161232A1, “C5a Receptor Antagonist” (JERINI AG, priority 2005, published 2008).
Read-outs that look alike come from different tables or passages of the source. Starred links: 1 amine or outer side, 2 acyl side, 3 side chain; linkers in the order of their positions; H or OH if unused. Positions of bridges follow the written chain, without caps; N, C: chain ends. Non-standard residues stand in square brackets, D forms with d. Residues, ends and D or L forms follow the SMILES beside them. X1 = COC1O[C@H](C(=O)[*:2])[C@@H](O)[C@H](O)[C@H]1N[*:1]; Orn(2-imidazolinyl) = N[C@@H](CCCNC1=NCCN1)C(=O)O; Bta = N[C@@H](Cc1csc2ccccc12)C(=O)O; Hyp = O=C(O)[C@@H]1C[C@@H](O)CN1; dCha = N[C@H](CC1CCCCC1)C(=O)O; Nle = CCCC[C@H](N)C(=O)O; Orn = NCCC[C@H](N)C(=O)O

Experiments:
C5aR [1] = target: T1, C5aR (Homo sapiens, UniProt P21730); details: compound numbers of WO 03/033528; read-out: IC50 as a measure for affinity, WO 03/033528; cited from earlier work
T1 construct: measurements with isolated membranes from polymorphonuclear neutrophilic granulocytes (PMN membranes); host or cells: isolated PMN membranes (endogenous receptor)
T1 sequence (P21730 1-350): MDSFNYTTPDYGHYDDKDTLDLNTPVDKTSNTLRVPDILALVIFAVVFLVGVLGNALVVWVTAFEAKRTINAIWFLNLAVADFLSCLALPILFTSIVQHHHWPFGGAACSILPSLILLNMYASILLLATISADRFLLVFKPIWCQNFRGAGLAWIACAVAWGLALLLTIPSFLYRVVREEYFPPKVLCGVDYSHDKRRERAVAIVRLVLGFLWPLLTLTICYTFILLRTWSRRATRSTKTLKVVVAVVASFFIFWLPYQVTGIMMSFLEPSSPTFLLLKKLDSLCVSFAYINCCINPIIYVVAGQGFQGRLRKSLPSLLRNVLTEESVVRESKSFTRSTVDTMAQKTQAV

human C5aR(CD88) [2] = target: T2, human C5aR(CD88) (Homo sapiens, UniProt P21730); assay: Determination of the IC50 value in an enzyme release assay (functional assay, antagonistic activity); format: cell-based; details: for inhibitory activity (in words): functional assay of example 11, noteworthy = IC50 less than 200 nM
T2 construct: expressed in transfected cells; host or cells: rat basophilic leukemia cells (RBL)
T2 sequence (P21730 1-350): T1 sequence (P21730 1-350)

human C5aR(CD88) [3] = target: T2, human C5aR(CD88); assay: Determination of EC50-values in an enzyme release assay (agonistic activity); format: cell-based; details: for agonistic activity (in words): cellular assay, up to a concentration of at least 1430 nM
Procedure: The assay procedure was described by Kohl (Kohl 1997 The Anaphylatoxins. In: Dodds, A. W., Sim, R. B. (Eds.), Complement: A Practical Approach. Oxford, pp. 135-163). Basophilic leukemia cells from rats (RBL), which express the human C5aR(CD88), were cultivated in DMEM with 10% fetal bovine serum, 100 U/ml penicillin, 100 μg/ml streptomycin and 2 mM glutamine (all components of the media from Biochrome, Berlin) to confluence at 37° C. and 10% CO2. The following specifications refer to single cell culture flask having a surface of 75 cm^2. Medium was decanted from cells. Cells were washed with 10 ml PBS (Dulbecco's PBS, Biochrome) and subsequently overlayed with 3 ml Cell Dissociation Solution (CDS, Sigma). Cells were incubated for 1 min at room temperature. Subsequently, CDS was removed and the cells were further incubated for 10-15 min at 37° C. for dissociation. In the assay, 20 μl of the solution containing the compound to be tested were used. This solution should not contain more than 2.8% DMSO. For the dilution process, the compounds were diluted in ⅓ or ½ steps. To 20 μl compound solution 75 μl of the RBL-cells were added, which were treated as follows: after dissociation cells were detached and warmed at 37° C. in 10 ml HAG-CM (20 mM HEPES; 125 mM NaCl, 5 mM KCl, 1 mM CaCl2, 1 mM MgCl2, 0,5 mM Glucose, 0,25% BSA. HEPES-preparation: 2.3 g/l HEPES-salt +2.66 g/l HEPES acid). Cells were counted and centrifuged (200×g, 10 min). The cell pellet was resuspended in preheated HAG-CM (i.e. Hepes-buffer NaCl-glucose-solution with calcium and magnesium), and the cell density was adjusted to 2×10^6 cells/ml. The cells were incubated at 37° C. for 5 min. Per ml cell suspension 27 μl of a cytochalasin B-solution were added (100 μg/ml in DMSO, Sigma). The cells were incubated for further 3 min at 37° C. 75 μl of the cell suspension were added to 20 μl compound solution leading to a volume of 95 μl per well. After incubation of the cells for 10 min at 37° C. 10 μl hrC5a (10.5 nM in HAG-CM, Sigma) per well were added. The cells were incubated for additional 5 min at 37° C. The mtp was then transferred to ice and centrifuged for 3 min at 4° C. with 1200×g. 75 μl of the supernatant were added to 100 μl substrate-solution (2.7 mg/ml p-nitrophenyl-N-acetyl-β-D-glucosaminide (Sigma) in 42.5 mM Na-acetate pH 4.5). The mtp was incubated for further 60 min at 37° C. 75 μl 0.4 M glycine pH 10.4 were added per well. The mtp was transferred into a reader and the absorption at 405 nm was measured. IC50-values were obtained following the equation; y=((A-D)/(1+(x/C)^B))+D.
Determination of EC50-Values in an Enzyme Release Assay
The determination of EC50-values was performed according to the procedure given in example II, with the exception that 30 μl of the test compound need to be mixed with 75 μl of the cell suspension mentioned in example 11. Neither preincubation nor addition of C5a for stimulation of enzyme release is needed.

C5aR [4] = target: T1, C5aR; details: compound numbers of WO 03/033528; read-out: antagonistic activity, WO 03/033528; cited from earlier work
[5] = Solubility determination for selected C5aR-antagonists; format: physicochemical; details: for Solubility in 20 mM HEPES pH 7.4 (% of 200 μM): 20 mM HEPES pH 7.4, 24 h at RT
Procedure: Solubility Determination for Selected C5aR-Antagonists
[…] The undissolved part was removed by centrifugation after 24 h. The UV-absorption of the supernatant was measured and compared to a reference solution of the compound in 60% MeOH.

[6] = Measurement of the AB-permeability in a TC-7 based assay-system; format: in vitro ADME; details: human
Procedure: Measurement of the AB-Permeability in a TC-7 Based Assay-System The screening compounds are diluted to a 50 μM solution in HBSS-MES (5 mM, pH 6.5) from 10 mM stock solution in 100% DMSO. ^14C-mannitol (approx. 4 μM) is added to the sample. The solution is centrifuged and the supernatant is added to the apical side of the TC-7 cell culture (passage 15, in 24 well transwell plate) to a final DMSO-concentration of 1%. HBSS-HEPES (5 mM, pH 7.4) is placed at the basolateral side. The cells were incubated for 120 min at 37° C.

C5aR [7] = target: T1, C5aR; details: PMN membranes, cited from earlier work
[8] = antagonistic activity, IC50 group in enzyme release assay, RBL cells expressing human C5aR(CD88), read-out: activity (group)
[9] = agonistic activity, no C5a added, read-out: EC50
[10] = examples of WO 90/09162, read-out: IC50 (binding), WO 90/09162
[11] = examples of WO 92/12168, read-out: IC50 (binding to C5aR), WO 92/12168

Molecule	IC50 (human C5aR(CD88) [2]; [8]) [nM]	inhibitory activity (in words) (human C5aR(CD88) [2])	agonistic activity (in words) (human C5aR(CD88) [3])	Solubility in 20 mM HEPES pH 7.4 (% of 200 μM) [5]	solubility in aqueous HEPES buffer (pH 7.4) [5] [%]	further results
CC(=O)N[C@@H](Cc1ccccc1)C(=O)N[C@H]1CCCNC(=O)[C@H](Cc2ccccc2)NC(=O)[C@H](Cc2c[nH]c3ccccc23)NC(=O)[C@@H](CC2CCCCC2)NC(=O)[C@@H]2CCCN2C1=O [Compound 1, Ac-Phe-[Orn-Pro-cha-Trp-Phe]] (Ac-F[Orn]P[dCha]WF; lactam 2-C)	20 to 50	without significant loss of activity	pure antagonists	8 % of 200 μM	8	IC50 (C5aR [1]): 450 nM; IC50 (human C5aR(CD88) [2]; functional assay of example 11, values in text, read-out: IC50): 23 nM; inhibitory activity (in words) (human C5aR(CD88) [2]; listed as Ac-Phe-[Orn-Pro-cha-Trp-Phe]): noteworthy inhibitory activity; EC50 (human C5aR(CD88) [3]; [9]): > 1430 nM; IC50 (C5aR [4]): 28 nM
CC(=O)N[C@@H](Cc1ccccc1)C(=O)N[C@H]1CCCNC(=O)[C@H](Cc2ccccc2)NC(=O)[C@H](Cc2c[nH]c3ccccc23)NC(=O)[C@@H](CC2CCCCC2)NC(=O)[C@@H]2C[C@@H](O)CN2C1=O [Compound 2, Ac-Phe-[Orn-Hyp-cha-Trp-Phe]] (Ac-F[Orn][Hyp][dCha]WF; lactam 2-C)	20 to 50	noteworthy inhibitory activity	pure antagonists	13 % of 200 μM	13	EC50 (human C5aR(CD88) [3]): > 1430 nM; Papp A→B at 120 min, 50 μM ([6]; Caco-2, TC-7 cells, 50 μM, apical pH 6.5, basolateral pH 7.4, 120 min at 37° C.): 14.2 ×10⁻⁶ cm/s; Papp A→B at 120 min, 50 μM ([6]; Caco-2, values in text): 14.3 ×10⁻⁶ cm/s
CCCC[C@@H]1NC(=O)[C@H](Cc2c[nH]c3ccccc23)NC(=O)[C@@H](CC2CCCCC2)NC(=O)[C@@H]2CCCN2C(=O)[C@@H](NC(=O)[C@H](Cc2ccccc2)NC(=O)[C@H]2OC(OC)[C@H](NC(C)=O)[C@@H](O)[C@@H]2O)CCCNC1=O (stereo partly drawn) [Compound 4, X-Phe-[Orn-Pro-cha-Trp-Nle]; X = 2-acetamido-1-methyl-glucuronyl] (Ac-[X1]F[Orn]P[dCha]W[Nle]; lactam 3-C)				84 % of 200 μM	84	
CCCC[C@@H]1NC(=O)[C@H](Cc2c[nH]c3ccccc23)NC(=O)[C@@H](CC2CCCCC2)NC(=O)[C@@H]2CCCN2C(=O)[C@@H](NC(=O)[C@H](Cc2ccccc2)NC(C)=O)CCCNC1=O [Compound 28, Ac-Phe-[Orn-Pro-cha-Trp-Nle]] (Ac-F[Orn]P[dCha]W[Nle]; lactam 2-C)	20 to 50	without significant loss of activity		22 % of 200 μM	22	inhibitory activity (in words) (human C5aR(CD88) [2]; listed as Ac-Phe-[Orn-Pro-cha-Trp-Nle]): noteworthy inhibitory activity; EC50 (human C5aR(CD88) [3]; [9]): > 1430 nM
CC(=O)N[C@@H](Cc1ccccc1)C(=O)N[C@H]1CCCNC(=O)[C@H](CCCNC(=N)N)NC(=O)[C@H](Cc2c[nH]c3ccccc23)NC(=O)[C@@H](CC2CCCCC2)NC(=O)[C@@H]2CCCN2C1=O [Compound 40, Ac-Phe-[Orn-Pro-cha-Trp-Arg], reference compound]				94 % of 200 μM	94	
CCCC[C@@H]1NC(=O)[C@H](Cc2c[nH]c3ccccc23)NC(=O)[C@@H](CC2CCCCC2)NC(=O)[C@@H]2CCCN2C(=O)[C@@H](NC(=O)[C@@H](N)Cc2ccccc2)CCCNC1=O [Compound 42, H-Phe-[Orn-Pro-cha-Trp-Nle]] (H-F[Orn]P[dCha]W[Nle]; lactam 2-C)	10 to 20	noteworthy inhibitory activity	pure antagonists	45 % of 200 μM		EC50 (human C5aR(CD88) [3]; [9]): > 1430 nM
CCCC[C@@H]1NC(=O)[C@H](Cc2c[nH]c3ccccc23)NC(=O)[C@@H](CC2CCCCC2)NC(=O)[C@@H]2CCCN2C(=O)[C@@H](NC(=O)[C@H](Cc2ccccc2)NC(=O)[C@H](CCCCN)NC(C)=O)CCCNC1=O [Compound 43, Ac-Lys-Phe-[Orn-Pro-cha-Trp-Nle]] (Ac-KF[Orn]P[dCha]W[Nle]; lactam 3-C)		noteworthy inhibitory activity	pure antagonists	93 % of 200 μM		
CC(=O)N[C@@H](Cc1ccccc1)C(=O)N[C@@H](CCCNC1=NCCN1)C(=O)N1CCC[C@H]1C(=O)N[C@H](CC1CCCCC1)C(=O)N[C@@H](Cc1csc2ccccc12)C(=O)N[C@@H](Cc1ccccc1)C(N)=O [Compound 150, Ac-Phe-Arg(CH2—CH2)-Pro-cha-Bta-Phe-NH2] (Ac-F[Orn(2-imidazolinyl)]P[dCha][Bta]F-NH2)	5 to 10	noteworthy inhibitory activity	pure antagonists			
CC(C)NCC(O)COc1cccc2ccccc12 (stereo not shown) [Propanolol, reference compound]						Papp A→B at 120 min, 50 μM ([6]; Caco-2, values in text): 31.1 ×10⁻⁶ cm/s
CC(=O)N[C@@H](Cc1ccccc1)C(=O)N[C@H]1CCCNC(=O)[C@H](CCCNC(=N)N)NC(=O)[C@H](Cc2c[nH]c3ccccc23)NC(=O)[C@@H](C)NC(=O)[C@@H]2CCCN2C1=O [compound 47]	> 2000					IC50 (C5aR [1]): 24000 nM
(N-Ethyl)Phe-Lys-Ala-Cha-Ala-Leu-N-Methyl(D)ala-Arg-OH						IC50 (C5aR [7]; [10]): 11 nM
(N-Methyl)Phe-Lys-Pro-cha-Phe-Phenylbutanoyl						IC50 (C5aR [7]; [11]): 2600 nM
(N-Methyl)Phe-Lys-Pro-cha-ψ55 CH2—N(CH2CH2C6H5)}-Arg-OH						IC50 (C5aR [7]; [11]): 360 nM
Ac-Phe-Lys-Ala-Cha-Ala-Leu-N-Methyl(D)ala-Arg-OH						IC50 (C5aR [7]; [10]): 12 nM
